Series [1] relates to HL-60. In words: Toxicity against human HL-60 cells at 100 uM after 24 hrs by trypan blue exclusion assay. The format is cell-based. As to conditions: hl-60, 24 h.
The subject of series [2] is HL-60. The experiment in a line: Cytoprotective activity against hydrogen peroxide-induced cell death in human HL-60 cells assessed as cell viability at 30 uM after 24 hrs by trypan blue exclusion assay. The series is classed as functional. As to conditions: for viability at 30 µM: HL-60, 24 h, read-out: Activity.
The subject of series [3] is HL-60. In words: Toxicity against human HL-60 cells at 60 uM after 24 hrs by trypan blue exclusion assay. The series is classed as cell-based. The following applies: hl-60, 24 h.
For series [4], the system named is HL-60. In words: Radical scavenging activity in human HL-60 cells assessed as reduction of hydrogen peroxide-induced ROS generation at 30 uM after 1 hr by 2',7'-dichlorofluorescein diacetate based flow cytometry. The series is classed as functional, cell-based.
A short description of series [5]: Antioxidant activity assessed as inhibition of lipid peroxidation. The format is functional.
Series [6] relates to HL-60. In words: Radical scavenging activity in human HL-60 cells assessed as reduction of hydrogen peroxide-induced ROS generation at 30 uM administered 3 hrs before H2O2 challenge measured after 1 hr by 2',7'-dichlorofluorescein diacetate based flow cytometry. The series is classed as functional, cell-based.

Activity calls are given as the source filed them. The calls are words filed in the database; no cut-off is given here.

Our source for the Activity and viability values is ChEMBL document CHEMBL1144227, “2,2'-Pyridoin derivatives protect HL-60 cells against oxidative stress” (Bioorg Med Chem Lett, 2008).

As to `COc1cccc(C(=O)C(=O)c2cccc(OC)n2)n1`, in the series with HL-60 [1], the Activity result was “Non-toxic”. Moreover, the result in the series with HL-60 [2] was Active.

`Cc1ccc(/C(O)=C(\O)c2ccc(C)cn2)nc1`: the Activity result with HL-60 [3] was “Non-toxic”. Moreover, the viability at 30 µM in the series with HL-60 [2] was 51.9%. Also, the result (in the series with HL-60 [4]; in series [5]) was Active.

`O=C(C(=O)c1ccccn1)c1ccccn1`: the Activity result in the series with HL-60 [1] is “Non-toxic”. The result with HL-60 [2] was Active.

Turning to `COc1ccc(/C(O)=C(\O)c2ccc(OC)cn2)nc1`, the Activity entry in the series on HL-60 [3] is “Non-toxic”. Further, the viability at 30 µM in the series on HL-60 [2] stood at 51.9%. The outcome (with HL-60 [4]; in series [5]) was Active.

`Cc1cc(C(C)(C)C)c(O)c(C(C)(C)C)c1` [BUTYLATED HYDROXYTOLUENE]: the Activity entry in the series on HL-60 [1] was “Toxic”.

As to `O/C(=C(/O)c1ccccn1)c1ccccn1`, the Activity result in the series on HL-60 [1] is “Non-toxic”. Moreover, the viability at 30 µM in the series on HL-60 [2] was 42.1%. For the same molecule, the outcome in the series with HL-60 [4] was Active.

For the molecule `COc1cccc(/C(O)=C(\O)c2cccc(OC)n2)n1`, in the series with HL-60 [1], the Activity result was “Non-toxic”. In addition, the viability at 30 µM in the series on HL-60 [2] worked out at 51.9%. The result (with HL-60 [4]; in series [5]) was Active.

As to `Cc1cccc(C(=O)C(=O)c2cccc(C)n2)n1`, the Activity result with HL-60 [1] was “Non-toxic”. In the series on HL-60 [2], the result was Active.

As to `O=C1O[C@H]([C@@H](O)CO)C(O)=C1O` [ASCORBIC ACID], in the series with HL-60 [2], the viability at 30 µM was found to be 37.9%. The result with HL-60 [4] and in the series on HL-60 [6] was Active.

Turning to `Cc1ccc(C(=O)C(=O)c2ccc(C)cn2)nc1`, the Activity result in the series on HL-60 [1] is reported as “Non-toxic”. Moreover, the result in the series with HL-60 [2] was Active.

For the molecule `COc1ccc(C(=O)C(=O)c2ccc(OC)cn2)nc1`, the Activity entry with HL-60 [1] is “Non-toxic”. Moreover, in the series with HL-60 [2], the result was inactive.

Regarding `Cc1cccc(/C(O)=C(\O)c2cccc(C)n2)n1`, the Activity result in the series with HL-60 [1] is given as “Non-toxic”. In the series on HL-60 [2], the viability at 30 µM was 51.9%. Moreover, the outcome in the series with HL-60 [4] was Active.
